Measured values published in paper PMC5946847, “Synthesis and biological evaluation of aryl-oxadiazoles as inhibitors of Mycobacterium tuberculosis” (Bioorganic & Medicinal Chemistry Letters, 2018).
In brackets after ≈: the same amount, converted by molar mass. Read-outs that look alike come from different tables or passages of the source.

Columns and labels:
[1] = tested on: M. tuberculosis H37Rv expressing DsRed; experiment: microbe, parasite or virus in culture; format: cell-based; settings: Mycobacterium tuberculosis, read-out: 7H9-Tw-OADC MIC
[2] = physchem; settings: pH 7.4
[3] = tested on: Vero cells (ATCC CCL81); experiment: Cytotoxicity in Vero cells (CellTiter-Glo); format: cell-based; settings: Chlorocebus sabaeus, 48 h, 2 days
Experimental: Vero cells (ATCC® CCL81) were grown in DMEM, high glucose, GlutaMAX™ (Invitrogen), 10% FBS, 50 units/mL penicillin, and 50 µg/mL streptomycin, seeded as 1200 cells per well in 384-well plates and incubated for 24 h at 37 °C with 5% CO2. Compounds were added as a 3-fold serial dilution series and cells incubated for 2 days at 37 °C with 5% CO2. Viability was measured using CellTiter-Glo® Reagent (Promega).

[4] = Mouse microsomal stability; format: in vitro ADME; settings: for Mouse microsome (% metabolized in 30 min): 2 μM
Experimental: 4. Method for microsomal stability:
To determine microsomal turnover, test compounds were incubated (2 μM) with liver microsomes in the presence of NADPH, and loss of parent molecule was measured by LC-MS after 30 min.

[5] = tested on: M. tuberculosis H37Rv expressing DsRed; experiment: microbe, parasite or virus in culture; format: cell-based; settings: Mycobacterium tuberculosis, average ± standard deviation for at least 2 runs, read-out: 7H9-Ty-BT MIC

c1ccc(C2CCCN2Cc2nnc(-c3cccs3)o2)cc1 (centres unmarked) [Compound 40]
MIC [1]: > 20 µM
solubility [2]: 50 µg/mL (≈ 161 µM)
IC50 [3]: 50 µM
Mouse microsome (% metabolized in 30 min) ([4]; mouse, microsomes, 0.5 h): 100%
MIC [5]: 9.9 ± 2.1 µM (≈ 3.08 µg/mL)

FC(F)(F)c1ccc(-c2nnc(CN3CCc4ccccc4C3)o2)cc1 [Compound 31]
MIC [1]: > 20 µM
solubility [2]: < 2 µg/mL
IC50 [3]: > 100 µM
MIC [5]: > 20 µM

c1csc(-c2nnc(CN3CCc4ccccc43)o2)c1 [Compound 36]
MIC [1]: > 20 µM
solubility [2]: 38 µg/mL (≈ 134 µM)
IC50 [3]: > 100 µM
Mouse microsome (% metabolized in 30 min) ([4]; mouse, microsomes, 0.5 h): 99%
MIC [5]: 2.1 ± 0.1 µM (≈ 0.595 µg/mL)

CN(Cc1nnc(-c2ccccc2)o1)Cc1c(F)cccc1Cl [Compound 12]
MIC [1]: > 20 µM
solubility [2]: 78 µg/mL (≈ 235 µM)
IC50 [3]: > 100 µM
Mouse microsome (% metabolized in 30 min) ([4]; mouse, microsomes, 0.5 h): 100%
MIC [5]: 0.4 ± 0.2 µM (≈ 0.133 µg/mL)

Fc1ccc(-c2nnc(CN3CCCc4ccccc43)o2)cc1 [Compound 26]
MIC [1]: > 20 µM
solubility [2]: < 2 µg/mL
IC50 [3]: > 100 µM
Mouse microsome (% metabolized in 30 min) ([4]; mouse, microsomes, 0.5 h): 100%
MIC [5]: 0.2 ± 0.1 µM (≈ 0.0619 µg/mL)

CN(Cc1nnc(-c2ccco2)o1)CC1CCCCC1 [Compound 19]
MIC [1]: > 20 µM
solubility [2]: 41 µg/mL (≈ 149 µM)
IC50 [3]: 90 µM
Mouse microsome (% metabolized in 30 min) ([4]; mouse, microsomes, 0.5 h): 100%
MIC [5]: 0.7 ± 0.5 µM (≈ 0.193 µg/mL)

c1ccc(-c2nnc(CN3CCCC3c3ccccc3)o2)cc1 (centres unmarked) [Compound 41]
MIC [1]: > 20 µM
solubility [2]: 34 µg/mL (≈ 111 µM)
IC50 [3]: > 100 µM
Mouse microsome (% metabolized in 30 min) ([4]; mouse, microsomes, 0.5 h): 99%
MIC [5]: 8.3 ± 1.4 µM (≈ 2.53 µg/mL)

c1coc(-c2nnc(SCc3cccc4ccccc34)o2)c1 [Compound 4]
solubility [2]: < 1 µg/mL
CLint scaled at 2 μM ([4]; mouse, microsomes): 1680 mL/min/kg
Mouse microsome (% metabolized in 30 min) ([4]; mouse, microsomes, 0.5 h): 95%

FC(F)(F)c1ccc(-c2nnc(CN3CCCc4ccccc43)o2)cc1 [Compound 27]
MIC [1]: > 20 µM
solubility [2]: < 2 µg/mL
IC50 [3]: > 100 µM
Mouse microsome (% metabolized in 30 min) ([4]; mouse, microsomes, 0.5 h): 87%
MIC [5]: 0.7 ± 0.3 µM (≈ 0.252 µg/mL)

c1csc(-c2nnc(CN3CCCc4ccccc43)o2)c1 [Compound 24]
MIC [1]: > 20 µM
solubility [2]: 5 µg/mL (≈ 16.8 µM)
IC50 [3]: > 100 µM
Mouse microsome (% metabolized in 30 min) ([4]; mouse, microsomes, 0.5 h): 97%
MIC [5]: 0.8 ± 0.5 µM (≈ 0.238 µg/mL)

c1ccc(-c2nnc(CN3CCc4ccccc4C3)o2)cc1 [Compound 29]
MIC [1]: > 20 µM
solubility [2]: 51 µg/mL (≈ 175 µM)
IC50 [3]: > 100 µM
Mouse microsome (% metabolized in 30 min) ([4]; mouse, microsomes, 0.5 h): 99%
MIC [5]: 7.7 ± 0.8 µM (≈ 2.24 µg/mL)

c1csc(-c2nnc(Cc3ccc4ccccc4c3)o2)c1 [Compound 7]
MIC [1]: > 20 µM
solubility [2]: < 1 µg/mL
IC50 [3]: > 100 µM
Mouse microsome (% metabolized in 30 min) ([4]; mouse, microsomes, 0.5 h): 100%
MIC [5]: 5.7 ± 0.2 µM (≈ 1.67 µg/mL)

CN(Cc1nnc(-c2ccco2)o1)Cc1ccccc1Cl [Compound 15]
MIC [1]: > 20 µM
solubility [2]: 270 µg/mL (≈ 889 µM)
IC50 [3]: 98 µM
Mouse microsome (% metabolized in 30 min) ([4]; mouse, microsomes, 0.5 h): 100%
MIC [5]: 0.6 ± 0.2 µM (≈ 0.182 µg/mL)

c1csc(-c2nnc(Cc3cccc4c3OCCO4)o2)c1 [Compound 8]
MIC [1]: > 20 µM
solubility [2]: 77 µg/mL (≈ 256 µM)
IC50 [3]: > 100 µM
Mouse microsome (% metabolized in 30 min) ([4]; mouse, microsomes, 0.5 h): 99%
MIC [5]: 0.8 ± 0.2 µM (≈ 0.24 µg/mL)

CN(Cc1ccccc1)Cc1nnc(-c2cccs2)o1 [Compound 13]
MIC [1]: > 20 µM
solubility [2]: 420 µg/mL (≈ 1470 µM)
IC50 [3]: > 100 µM
Mouse microsome (% metabolized in 30 min) ([4]; mouse, microsomes, 0.5 h): 98%
MIC [5]: 0.5 ± 0.1 µM (≈ 0.143 µg/mL)

c1ccc(-c2nnc(CN3CCCc4ccccc43)o2)cc1 [Compound 25]
MIC [1]: > 20 µM
solubility [2]: 3 µg/mL (≈ 10.3 µM)
IC50 [3]: > 100 µM
Mouse microsome (% metabolized in 30 min) ([4]; mouse, microsomes, 0.5 h): 100%
MIC [5]: 1.7 ± 0.1 µM (≈ 0.495 µg/mL)

c1ccc(-c2nnc(CN3Cc4ccccc4C3)o2)cc1 [Compound 39]
MIC [1]: > 20 µM
solubility [2]: 20 µg/mL (≈ 72.1 µM)
IC50 [3]: > 100 µM
Mouse microsome (% metabolized in 30 min) ([4]; mouse, microsomes, 0.5 h): 98%
MIC [5]: 7.5 ± 3.5 µM (≈ 2.08 µg/mL)

CN(Cc1nnc(-c2cccs2)o1)Cc1c(F)cccc1Cl [Compound 11]
MIC [1]: > 20 µM
solubility [2]: 120 µg/mL (≈ 355 µM)
IC50 [3]: > 100 µM
Mouse microsome (% metabolized in 30 min) ([4]; mouse, microsomes, 0.5 h): 100%
MIC [5]: 0.6 ± 0.2 µM (≈ 0.203 µg/mL)

c1csc(-c2nnc(CN3Cc4ccccc4C3)o2)c1 [Compound 38]
MIC [1]: > 20 µM
solubility [2]: 12 µg/mL (≈ 42.3 µM)
IC50 [3]: > 100 µM
Mouse microsome (% metabolized in 30 min) ([4]; mouse, microsomes, 0.5 h): 99%
MIC [5]: 6.7 ± 1.7 µM (≈ 1.9 µg/mL)

Fc1cccc(Cl)c1CNCc1nnc(-c2ccco2)o1 [Compound 20]
MIC [1]: > 20 µM
solubility [2]: 180 µg/mL (≈ 585 µM)
IC50 [3]: > 100 µM
Mouse microsome (% metabolized in 30 min) ([4]; mouse, microsomes, 0.5 h): 99%
MIC [5]: 5.5 ± 0.4 µM (≈ 1.69 µg/mL)

CN(Cc1ccc(C(F)(F)F)cc1)Cc1nnc(-c2cccs2)o1 [Compound 17]
MIC [1]: > 20 µM
solubility [2]: 22 µg/mL (≈ 62.3 µM)
IC50 [3]: 87 µM
Mouse microsome (% metabolized in 30 min) ([4]; mouse, microsomes, 0.5 h): 98%
MIC [5]: 6.8 ± 2.4 µM (≈ 2.4 µg/mL)

c1ccc(-c2nnc(CN3CCOc4ccccc43)o2)cc1 [Compound 33]
MIC [1]: > 20 µM
solubility [2]: 28 µg/mL (≈ 95.5 µM)
IC50 [3]: > 100 µM
Mouse microsome (% metabolized in 30 min) ([4]; mouse, microsomes, 0.5 h): 99%
MIC [5]: 2.8 ± 1.7 µM (≈ 0.821 µg/mL)

CN(Cc1ccccc1)Cc1nnc(-c2ccco2)o1 [Compound 14]
MIC [1]: > 20 µM
solubility [2]: 400 µg/mL (≈ 1490 µM)
IC50 [3]: > 100 µM
Mouse microsome (% metabolized in 30 min) ([4]; mouse, microsomes, 0.5 h): 95%
MIC [5]: 0.6 ± 0.2 µM (≈ 0.162 µg/mL)

CN(Cc1ccc(F)cc1)Cc1nnc(-c2ccccc2)o1 [Compound 16]
MIC [1]: > 20 µM
IC50 [3]: 97 µM
MIC [5]: 0.9 ± 0.03 µM (≈ 0.268 µg/mL)

Fc1ccc(-c2nnc(CN3CCc4ccccc4C3)o2)cc1 [Compound 30]
MIC [1]: > 20 µM
solubility [2]: 40 µg/mL (≈ 129 µM)
IC50 [3]: > 100 µM
Mouse microsome (% metabolized in 30 min) ([4]; mouse, microsomes, 0.5 h): 80%
MIC [5]: 4.7 ± 1.3 µM (≈ 1.45 µg/mL)

c1coc(-c2nnc(Cc3cccc4ccccc34)o2)c1 [Compound 6]
MIC [1]: > 20 µM
solubility [2]: < 1 µg/mL
IC50 [3]: > 100 µM
Mouse microsome (% metabolized in 30 min) ([4]; mouse, microsomes, 0.5 h): 100%
MIC [5]: 1.1 ± 0.9 µM (≈ 0.304 µg/mL)

Fc1cccc(Cl)c1COCc1nnc(-c2ccco2)o1 [Compound 21]
MIC [1]: > 20 µM
solubility [2]: 150 µg/mL (≈ 486 µM)
IC50 [3]: > 100 µM
Mouse microsome (% metabolized in 30 min) ([4]; mouse, microsomes, 0.5 h): 100%
MIC [5]: 6 ± 0.4 µM (≈ 1.85 µg/mL)

CN(Cc1ccc(C(F)(F)F)cc1)Cc1nnc(-c2ccccc2)o1 [Compound 18]
MIC [1]: > 20 µM
solubility [2]: 9 µg/mL (≈ 25.9 µM)
IC50 [3]: 80 µM
Mouse microsome (% metabolized in 30 min) ([4]; mouse, microsomes, 0.5 h): 99%
MIC [5]: 10.8 ± 3.3 µM (≈ 3.75 µg/mL)

FC(F)(F)c1ccc(-c2nnc(CN3CCOc4ccccc43)o2)cc1 [Compound 35]
MIC [1]: > 20 µM
solubility [2]: < 2 µg/mL
IC50 [3]: 85 µM
Mouse microsome (% metabolized in 30 min) ([4]; mouse, microsomes, 0.5 h): 95%
MIC [5]: 8.3 ± 1.7 µM (≈ 3 µg/mL)

c1ccc(-c2nnc(CN3CCc4ccccc43)o2)cc1 [Compound 37]
MIC [1]: > 20 µM
solubility [2]: 21 µg/mL (≈ 75.7 µM)
IC50 [3]: > 100 µM
Mouse microsome (% metabolized in 30 min) ([4]; mouse, microsomes, 0.5 h): 99%
MIC [5]: 2.3 ± 0.9 µM (≈ 0.638 µg/mL)

Fc1ccc(-c2nnc(CN3CCOc4ccccc43)o2)cc1 [Compound 34]
MIC [1]: > 20 µM
solubility [2]: < 2 µg/mL
IC50 [3]: > 100 µM
Mouse microsome (% metabolized in 30 min) ([4]; mouse, microsomes, 0.5 h): 98%
MIC [5]: 1.8 ± 0.4 µM (≈ 0.56 µg/mL)

c1ccc(Cc2nnc(-c3cccs3)o2)cc1 [Compound 9]
MIC [1]: > 20 µM
solubility [2]: 31 µg/mL (≈ 128 µM)
IC50 [3]: 79 µM
Mouse microsome (% metabolized in 30 min) ([4]; mouse, microsomes, 0.5 h): 99%
MIC [5]: 1.1 ± 0.2 µM (≈ 0.267 µg/mL)

c1csc(-c2nnc(CN3CCOc4ccccc43)o2)c1 [Compound 32]
MIC [1]: > 20 µM
solubility [2]: 33 µg/mL (≈ 110 µM)
IC50 [3]: > 100 µM
Mouse microsome (% metabolized in 30 min) ([4]; mouse, microsomes, 0.5 h): 99%
MIC [5]: 1.8 ± 0.6 µM (≈ 0.539 µg/mL)

CN(Cc1nnc(-c2ccco2)s1)Cc1c(F)cccc1Cl [Compound 10]
MIC [1]: > 20 µM
solubility [2]: 20 µg/mL (≈ 59.2 µM)
IC50 [3]: 75 µM
Mouse microsome (% metabolized in 30 min) ([4]; mouse, microsomes, 0.5 h): 99%
MIC [5]: 3.2 ± 0.5 µM (≈ 1.08 µg/mL)

c1csc(-c2nnc(COc3ccc4c(c3)OCO4)o2)c1 [Compound 5]
Mouse microsome (% metabolized in 30 min) ([4]; NADPH, 30 min): 76%
CLint scaled at 2 μM ([4]; mouse, microsomes, Table 1, read-out: Mouse microsome unbound intrinsic clearance): 332 mL/min/kg
